Assay [1] has as its target Structural maintenance of chromosomes protein 2 (Homo sapiens, UniProt O95347).
Assay [2] has as its target T1, Acyl-CoA dehydrogenase family member 10 (Homo sapiens, UniProt Q6JQN1).
T1 sequence (Q6JQN1 whole entry): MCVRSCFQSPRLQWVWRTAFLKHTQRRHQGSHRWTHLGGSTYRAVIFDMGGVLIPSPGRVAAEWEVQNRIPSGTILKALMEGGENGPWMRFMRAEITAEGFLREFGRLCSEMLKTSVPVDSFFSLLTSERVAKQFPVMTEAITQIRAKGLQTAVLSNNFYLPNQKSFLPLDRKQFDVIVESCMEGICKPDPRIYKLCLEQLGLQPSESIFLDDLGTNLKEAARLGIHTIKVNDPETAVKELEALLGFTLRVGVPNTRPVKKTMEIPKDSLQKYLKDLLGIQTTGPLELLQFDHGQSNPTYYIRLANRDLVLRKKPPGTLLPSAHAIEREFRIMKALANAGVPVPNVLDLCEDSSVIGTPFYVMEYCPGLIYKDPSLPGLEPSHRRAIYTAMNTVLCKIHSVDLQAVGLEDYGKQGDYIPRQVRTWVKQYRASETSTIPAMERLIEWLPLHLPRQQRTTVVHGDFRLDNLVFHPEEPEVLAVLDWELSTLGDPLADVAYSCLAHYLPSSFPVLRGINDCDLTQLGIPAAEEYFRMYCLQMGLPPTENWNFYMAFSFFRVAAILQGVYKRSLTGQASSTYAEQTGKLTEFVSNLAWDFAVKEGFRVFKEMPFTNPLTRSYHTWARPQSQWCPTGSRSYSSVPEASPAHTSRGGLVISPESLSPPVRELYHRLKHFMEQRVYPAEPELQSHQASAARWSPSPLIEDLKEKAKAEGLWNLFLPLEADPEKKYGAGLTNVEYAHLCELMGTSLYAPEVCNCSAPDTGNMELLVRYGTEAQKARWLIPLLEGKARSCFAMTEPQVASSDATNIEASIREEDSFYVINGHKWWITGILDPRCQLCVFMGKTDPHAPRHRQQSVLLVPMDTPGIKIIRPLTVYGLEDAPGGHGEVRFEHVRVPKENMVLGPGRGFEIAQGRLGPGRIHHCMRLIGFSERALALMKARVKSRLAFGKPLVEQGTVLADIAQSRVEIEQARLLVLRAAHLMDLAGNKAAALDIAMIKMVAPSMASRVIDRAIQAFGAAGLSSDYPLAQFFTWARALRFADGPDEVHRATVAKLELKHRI

The target in assay [3] is T2, Interleukin-1 receptor-associated kinase 3 (Homo sapiens, UniProt Q9Y616).
T2 sequence (Q9Y616 whole entry): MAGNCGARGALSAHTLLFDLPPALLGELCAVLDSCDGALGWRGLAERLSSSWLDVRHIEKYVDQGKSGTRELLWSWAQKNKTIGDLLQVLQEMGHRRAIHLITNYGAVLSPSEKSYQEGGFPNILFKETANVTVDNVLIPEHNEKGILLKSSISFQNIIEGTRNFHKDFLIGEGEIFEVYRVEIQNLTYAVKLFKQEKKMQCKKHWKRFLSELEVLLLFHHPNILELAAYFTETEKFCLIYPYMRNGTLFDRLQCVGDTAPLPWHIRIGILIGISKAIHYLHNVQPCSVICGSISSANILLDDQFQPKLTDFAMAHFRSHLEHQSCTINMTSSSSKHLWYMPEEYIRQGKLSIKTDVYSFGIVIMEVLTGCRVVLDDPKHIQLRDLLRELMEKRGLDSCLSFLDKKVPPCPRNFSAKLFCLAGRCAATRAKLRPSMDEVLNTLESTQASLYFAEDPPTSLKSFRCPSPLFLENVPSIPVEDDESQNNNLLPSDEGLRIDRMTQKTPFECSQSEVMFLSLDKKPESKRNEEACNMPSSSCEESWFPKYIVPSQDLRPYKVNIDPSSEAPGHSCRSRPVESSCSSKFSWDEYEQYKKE

The target in assay [4] is T3, Dual specificity mitogen-activated protein kinase kinase 5 (Homo sapiens, UniProt Q13163).
T3 sequence (Q13163 whole entry): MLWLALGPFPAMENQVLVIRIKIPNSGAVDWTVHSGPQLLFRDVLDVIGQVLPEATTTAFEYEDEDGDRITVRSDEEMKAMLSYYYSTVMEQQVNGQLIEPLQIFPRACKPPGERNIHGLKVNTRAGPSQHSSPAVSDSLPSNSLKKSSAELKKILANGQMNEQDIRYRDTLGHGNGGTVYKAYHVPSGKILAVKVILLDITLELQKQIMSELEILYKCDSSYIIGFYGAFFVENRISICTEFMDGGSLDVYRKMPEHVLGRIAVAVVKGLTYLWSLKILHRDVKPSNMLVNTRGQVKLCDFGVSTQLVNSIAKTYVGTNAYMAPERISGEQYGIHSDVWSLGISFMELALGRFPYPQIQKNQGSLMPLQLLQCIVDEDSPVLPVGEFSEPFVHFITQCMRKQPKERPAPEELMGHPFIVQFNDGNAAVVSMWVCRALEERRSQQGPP

In assay [5] the target is T4, Ferrochelatase, mitochondrial (Homo sapiens, UniProt P22830).
T4 sequence (P22830 whole entry): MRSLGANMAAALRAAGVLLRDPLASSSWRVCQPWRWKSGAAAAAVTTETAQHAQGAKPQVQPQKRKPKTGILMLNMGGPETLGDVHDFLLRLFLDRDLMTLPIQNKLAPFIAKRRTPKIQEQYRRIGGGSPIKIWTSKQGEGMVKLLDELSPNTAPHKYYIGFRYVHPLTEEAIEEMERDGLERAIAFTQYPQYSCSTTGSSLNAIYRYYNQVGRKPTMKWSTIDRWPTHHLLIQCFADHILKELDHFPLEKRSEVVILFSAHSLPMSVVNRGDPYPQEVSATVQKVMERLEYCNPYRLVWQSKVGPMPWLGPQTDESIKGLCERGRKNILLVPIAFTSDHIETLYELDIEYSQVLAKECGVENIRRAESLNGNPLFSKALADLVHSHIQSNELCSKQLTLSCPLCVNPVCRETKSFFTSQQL

Assay [6] concerns the target S-adenosylmethionine synthase isoform type-2 (Homo sapiens, UniProt P31153).
The target in assay [7] is Calcium/calmodulin-dependent protein kinase kinase 2 (Homo sapiens, UniProt Q96RR4).
Sequence of Calcium/calmodulin-dependent protein kinase kinase 2 (Q96RR4 whole entry): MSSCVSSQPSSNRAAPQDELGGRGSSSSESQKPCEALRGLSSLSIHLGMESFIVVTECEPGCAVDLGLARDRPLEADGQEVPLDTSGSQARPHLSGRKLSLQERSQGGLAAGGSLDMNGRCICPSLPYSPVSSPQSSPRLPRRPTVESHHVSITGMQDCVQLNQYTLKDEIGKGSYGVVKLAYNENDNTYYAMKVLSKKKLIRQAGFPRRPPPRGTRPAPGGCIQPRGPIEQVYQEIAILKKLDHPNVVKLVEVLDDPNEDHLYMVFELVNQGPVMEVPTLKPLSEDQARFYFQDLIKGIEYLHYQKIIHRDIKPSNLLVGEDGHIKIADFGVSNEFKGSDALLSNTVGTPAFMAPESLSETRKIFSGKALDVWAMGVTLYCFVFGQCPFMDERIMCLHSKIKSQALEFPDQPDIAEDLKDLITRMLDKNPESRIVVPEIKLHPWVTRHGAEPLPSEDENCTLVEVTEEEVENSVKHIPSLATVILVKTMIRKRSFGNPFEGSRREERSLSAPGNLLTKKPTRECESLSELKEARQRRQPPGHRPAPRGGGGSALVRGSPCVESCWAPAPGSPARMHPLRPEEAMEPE
For assay [8], the target named is Cyclin-dependent kinase 7 (Homo sapiens, UniProt P50613).
Sequence of Cyclin-dependent kinase 7 (P50613 whole entry): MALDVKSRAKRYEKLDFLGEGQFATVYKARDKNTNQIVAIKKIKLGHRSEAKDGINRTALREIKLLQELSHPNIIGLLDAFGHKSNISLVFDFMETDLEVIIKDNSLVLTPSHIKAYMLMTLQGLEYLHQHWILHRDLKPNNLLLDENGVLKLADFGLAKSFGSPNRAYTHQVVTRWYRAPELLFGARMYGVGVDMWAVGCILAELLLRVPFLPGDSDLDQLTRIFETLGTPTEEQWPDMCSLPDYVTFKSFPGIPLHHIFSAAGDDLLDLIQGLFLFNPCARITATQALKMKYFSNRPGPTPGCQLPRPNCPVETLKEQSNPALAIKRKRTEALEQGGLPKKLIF
Assay [9] has as its target Dual specificity tyrosine-phosphorylation-regulated kinase 1A (Homo sapiens, UniProt Q13627).
Assay [10] addresses cAMP-dependent protein kinase catalytic subunit gamma (Homo sapiens, UniProt P22612).

Molecules are shown by their SMILES. pKd: −log10 of the molar value. Calls of active or inactive are those of the source. For most assays here, no stated cut-off is given here; in the data, actives have a measured Kd and inactives only a lower limit.

Sequence of S-adenosylmethionine synthase isoform type-2 (P31153 whole entry, canonical isoform): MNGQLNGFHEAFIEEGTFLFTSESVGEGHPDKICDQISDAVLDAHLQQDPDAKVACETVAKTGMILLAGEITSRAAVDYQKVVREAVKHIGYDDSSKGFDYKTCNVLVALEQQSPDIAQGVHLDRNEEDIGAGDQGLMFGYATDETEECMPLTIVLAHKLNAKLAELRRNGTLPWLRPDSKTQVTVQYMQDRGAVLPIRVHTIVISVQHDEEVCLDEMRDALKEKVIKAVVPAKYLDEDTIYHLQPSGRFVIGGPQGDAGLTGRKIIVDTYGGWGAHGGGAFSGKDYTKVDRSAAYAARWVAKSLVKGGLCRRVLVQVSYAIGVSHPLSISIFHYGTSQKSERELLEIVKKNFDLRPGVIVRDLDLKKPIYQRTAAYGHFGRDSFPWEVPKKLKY
Sequence of Structural maintenance of chromosomes protein 2 (O95347 whole entry): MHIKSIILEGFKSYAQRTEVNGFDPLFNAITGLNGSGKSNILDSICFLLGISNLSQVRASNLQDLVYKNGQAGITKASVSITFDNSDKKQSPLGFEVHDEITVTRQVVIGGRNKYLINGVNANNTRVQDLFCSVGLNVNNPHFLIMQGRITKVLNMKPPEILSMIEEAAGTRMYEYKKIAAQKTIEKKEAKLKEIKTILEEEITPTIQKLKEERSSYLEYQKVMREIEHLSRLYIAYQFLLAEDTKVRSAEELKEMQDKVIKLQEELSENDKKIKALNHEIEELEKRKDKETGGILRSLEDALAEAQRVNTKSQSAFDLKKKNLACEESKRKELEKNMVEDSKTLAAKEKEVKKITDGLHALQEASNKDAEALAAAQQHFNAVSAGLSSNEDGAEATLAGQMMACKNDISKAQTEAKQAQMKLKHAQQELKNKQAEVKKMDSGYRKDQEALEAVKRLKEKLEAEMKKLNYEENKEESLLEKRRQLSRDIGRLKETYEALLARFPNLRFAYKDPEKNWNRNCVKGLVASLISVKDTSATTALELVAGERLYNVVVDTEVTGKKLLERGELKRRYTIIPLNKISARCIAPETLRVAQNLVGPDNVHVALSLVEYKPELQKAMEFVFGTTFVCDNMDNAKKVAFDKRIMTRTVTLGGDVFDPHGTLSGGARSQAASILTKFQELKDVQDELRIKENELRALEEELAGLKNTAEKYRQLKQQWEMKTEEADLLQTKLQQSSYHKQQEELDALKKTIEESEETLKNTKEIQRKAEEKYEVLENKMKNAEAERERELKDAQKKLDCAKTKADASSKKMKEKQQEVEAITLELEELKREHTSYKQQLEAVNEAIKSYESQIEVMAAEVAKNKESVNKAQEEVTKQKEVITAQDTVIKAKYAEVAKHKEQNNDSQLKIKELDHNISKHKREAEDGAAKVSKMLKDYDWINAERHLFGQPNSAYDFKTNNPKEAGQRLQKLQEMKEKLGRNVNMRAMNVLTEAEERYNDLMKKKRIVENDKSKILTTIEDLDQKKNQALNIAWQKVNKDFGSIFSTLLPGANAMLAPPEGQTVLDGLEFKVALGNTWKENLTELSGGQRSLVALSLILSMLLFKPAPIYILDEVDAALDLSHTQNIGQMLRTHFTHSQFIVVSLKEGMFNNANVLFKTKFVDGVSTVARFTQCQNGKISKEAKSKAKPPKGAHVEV
Sequence of cAMP-dependent protein kinase catalytic subunit gamma (P22612 whole entry): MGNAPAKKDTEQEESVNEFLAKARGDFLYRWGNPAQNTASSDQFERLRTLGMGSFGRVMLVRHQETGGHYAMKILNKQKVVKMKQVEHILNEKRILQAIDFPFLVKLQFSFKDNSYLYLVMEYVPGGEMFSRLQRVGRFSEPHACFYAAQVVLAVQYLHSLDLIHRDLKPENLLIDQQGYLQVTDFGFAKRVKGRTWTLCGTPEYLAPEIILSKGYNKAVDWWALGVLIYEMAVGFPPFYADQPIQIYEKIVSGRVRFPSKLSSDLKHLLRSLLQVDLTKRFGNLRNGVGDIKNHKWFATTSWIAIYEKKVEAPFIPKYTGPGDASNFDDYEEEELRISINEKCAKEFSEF

In general, Kd refers to a measure of binding affinity in units of concentration. Consider `O=C(Nc1cccc(Cl)c1)Nc1ncc(CCNc2ncnc3ccsc23)s1` [SNS-314], for which the Kd in assay [1], in assay [2], in assay [3], in assay [4], in [5] and in assay [6] was > 30 µM (inactive) each time. Moreover, the Kd in [7] is > 30 µM (inactive).
For the compound `COc1cc(CCc2cc(NC(=O)c3ccc(N4C[C@@H](C)N[C@@H](C)C4)cc3)n[nH]2)cc(OC)c1` [AZD-4547], the Kd in assay [1], in assay [2], in [3], in [4], in assay [8] and in assay [5] was > 30 µM (inactive) each time. Moreover, the Kd in assay [9] and in assay [7] was > 30 µM (inactive) in each case.
Turning to `Nc1nc(N)c2nc(-c3cccc(O)c3)c(-c3cccc(O)c3)nc2n1` [TG100-115], the Kd in assay [1], in assay [5], in assay [10] and in assay [6] was > 30 µM (inactive) each time.
As for `CN1CCN(c2ccc3nc(-c4c(N)c5c(F)cccc5[nH]c4=O)[nH]c3c2)CC1` [DOVITINIB], the Kd in [1], in [2], in assay [5] and in [10] was > 30 µM (inactive) each time.
`CNC(=O)c1ccc(C)c(-n2c(C)cc(OCc3ccc(F)cc3F)c(Br)c2=O)c1` [PH-797804]: the Kd in [1], in [3], in [4], in assay [8], in [5] and in assay [6] was > 30 µM (inactive) each time. Moreover, the Kd in assay [9] and in [7] was > 30 µM (inactive) in each case.
What is called pKd is −log10 of the Kd, conventionally taken in molar units. Read a low pKd as a high Kd. With `Cc1nc(N)sc1-c1ccnc(Nc2ccc(N3CCOCC3)cc2)n1` [CYC-116], the Kd in assay [1] was > 30 µM (inactive); in [3], 0.057 µM (active); in assay [4], 1.48 µM (active); in assay [8] it was > 30 µM (inactive); in [5], 0.783 µM (active); in [6] it was > 30 µM (inactive). The equilibrium dissociation constant (Kd) in [7] was 52.8 µM (active). Besides, the pKd in assay [2] was 6.15.
On to `CCCS(=O)(=O)Nc1ccc(F)c(C(=O)c2c[nH]c3ncc(-c4ccc(Cl)cc4)cc23)c1F` [VEMURAFENIB], for which the Kd was > 30 µM (inactive) in assay [1]; > 30 µM (inactive) in assay [2]; > 30 µM (inactive) in assay [3]; 0.734 µM (active) in assay [4]; > 30 µM (inactive) in assay [8]; 1.42 µM (active) in assay [5]. For the same compound, the Kd in assay [6], in [9] and in assay [7] was > 30 µM (inactive) in each case.
`O=C(O)[C@]1(Cc2cccc(Nc3nccs3)n2)CC[C@@H](Oc2cccc(Cl)c2F)CC1` [MK-5108]: the Kd in [1] was > 30 µM (inactive); in assay [2], 2.47 µM (active); in assay [3], 0.024 µM (active); in [4] it was > 30 µM (inactive); in assay [8], > 30 µM (inactive); in assay [5], > 30 µM (inactive). In addition, the Kd in [6], in assay [9] and in assay [7] was > 30 µM (inactive) each time.
Consider `CC[C@@H]1C(=O)N(C)c2cnc(Nc3ccc(C(=O)N[C@H]4CC[C@H](N5CCN(CC6CC6)CC5)CC4)cc3OC)nc2N1C(C)C` [VOLASERTIB], for which the Kd in [1], in assay [2], in assay [3], in assay [4], in [8] and in assay [5] was > 30 µM (inactive) throughout. Also, the Kd is > 30 µM (inactive) in assay [6], > 30 µM (inactive) in [9] and 0.195 µM (active) in assay [7].
Consider `OCCn1cc(-c2cnc3nnn(Cc4ccc5ncccc5c4)c3n2)cn1` [PF-04217903], for which the Kd in assay [1], in assay [2], in assay [3], in assay [4], in assay [5] and in [6] was > 30 µM (inactive) each time. The Kd in assay [7] was > 30 µM (inactive).
For the compound `Cn1ncc(Cl)c1-c1cc(C(=O)N[C@H](CN)Cc2cccc(F)c2)sc1Cl` [AFURESERTIB], the Kd in [1], in [3], in [4], in [8], in [5] and in assay [6] was > 30 µM (inactive) throughout. Moreover, the Kd in assay [9] and in assay [7] was > 30 µM (inactive) throughout.
For `COCCNCc1ccc(-c2cc3nccc(Oc4ccc(NC(=S)NC(=O)Cc5ccc(F)cc5)cc4F)c3s2)nc1` [GLESATINIB], the Kd in assay [1], in assay [2], in [3], in assay [4], in assay [8] and in assay [5] was > 30 µM (inactive) each time. Moreover, the Kd in assay [6], in assay [9] and in assay [7] was > 30 µM (inactive) each time.
Turning to `CNS(=O)(=O)Nc1nccc(Cc2c(C)c3ccc(Oc4ncccn4)cc3oc2=O)c1F` [AVUTOMETINIB], the Kd is > 30 µM (inactive) in assay [1]; > 30 µM (inactive) in [2]; > 30 µM (inactive) in assay [3]; 2 µM (active) in assay [4]; > 30 µM (inactive) in assay [8]; > 30 µM (inactive) in assay [5]. Further, the Kd in [6], in assay [9] and in assay [7] was > 30 µM (inactive) each time.

Values taken from ChEMBL document CHEMBL3991601, “The target landscape of clinical kinase drugs” (Science, 2017).
